Experimental data reported in the kinase profiling compilation of Christmann-Franck et al. (2016).

Columns and labels:
Assay in all cases: radiometric filter-binding kinase assay
INSR (human) = INSR (human) (UniProt P06213); details: compound 1.0 µM
EPHB2 (human) = EPHB2 (human) (UniProt P29323)
MAPK12 (human) = MAPK12 (human) (UniProt P53778)
[1] = tested on: PAK2 (human), Q13177 [T402E]
TBK1 (human) = TBK1 (human) (UniProt Q9UHD2)
SYK (human) = SYK (human) (UniProt P43405)
CDK2 CCNA2 (human) = CDK2 CCNA2 (human) (UniProt P20248+P24941)
EPHA4 (human) = EPHA4 (human) (UniProt P54764)
FGFR1 (human) = FGFR1 (human) (UniProt P11362)
MAP3K7 TAB1 (human) = MAP3K7 TAB1 (human) (UniProt Q15750+O43318)
[2] = tested on: RPS6KB1 (human), P23443 [T412E]
CSNK1D (human) = CSNK1D (human) (UniProt P48730)
RIPK2 (human) = RIPK2 (human) (UniProt O43353)
BRSK2 (human) = BRSK2 (human) (UniProt Q8IWQ3)
MAP3K11 (human) = MAP3K11 (human) (UniProt Q16584)
MELK (human) = MELK (human) (UniProt Q14680)
PIM3 (human) = PIM3 (human) (UniProt Q86V86)
PIM1 (human) = PIM1 (human) (UniProt P11309)
[3] = tested on: SGK1 (human), O00141 [S422D]
TTK (human) = TTK (human) (UniProt P33981)
RPS6KA3 KD1 KD2 (human) = RPS6KA3 KD1 KD2 (human) (UniProt P51812)
MAPKAPK3 (human) = MAPKAPK3 (human) (UniProt Q16644)
BRSK1 (human) = BRSK1 (human) (UniProt Q8TDC3)
MAPK8 (human) = MAPK8 (human) (UniProt P45983)
MYLK (human) = MYLK (human) (UniProt Q15746)
CLK2 (human) = CLK2 (human) (UniProt P49760)
AURKA (human) = AURKA (human) (UniProt O14965)
PLK1 (human) = PLK1 (human) (UniProt P53350)
JAK2 JH1 JH2 (human) = JAK2 JH1 JH2 (human) (UniProt O60674)
CSK (human) = CSK (human) (UniProt P41240)
INSRR (human) = INSRR (human) (UniProt P14616)
MARK4 (human) = MARK4 (human) (UniProt Q96L34)
IRAK4 (human) = IRAK4 (human) (UniProt Q9NWZ3)
FLT1 (human) = FLT1 (human) (UniProt P17948)
MAP2K2 (human) = MAP2K2 (human) (UniProt P36507)

MAPK8 (human), sequence (P45983 whole entry, looked up): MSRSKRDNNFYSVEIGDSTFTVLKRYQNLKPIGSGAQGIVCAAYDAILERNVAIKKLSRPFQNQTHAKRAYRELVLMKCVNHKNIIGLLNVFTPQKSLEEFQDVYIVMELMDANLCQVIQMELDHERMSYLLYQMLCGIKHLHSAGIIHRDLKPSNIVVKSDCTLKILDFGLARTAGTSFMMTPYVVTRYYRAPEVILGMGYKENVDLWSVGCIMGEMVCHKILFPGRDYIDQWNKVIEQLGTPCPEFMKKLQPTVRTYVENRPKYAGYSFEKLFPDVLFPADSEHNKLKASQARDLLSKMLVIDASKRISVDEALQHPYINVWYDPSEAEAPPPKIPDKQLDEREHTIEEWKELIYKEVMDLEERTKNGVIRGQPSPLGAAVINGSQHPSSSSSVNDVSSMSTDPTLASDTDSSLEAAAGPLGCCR
JAK2 JH1 JH2 (human), sequence (O60674 whole entry, looked up): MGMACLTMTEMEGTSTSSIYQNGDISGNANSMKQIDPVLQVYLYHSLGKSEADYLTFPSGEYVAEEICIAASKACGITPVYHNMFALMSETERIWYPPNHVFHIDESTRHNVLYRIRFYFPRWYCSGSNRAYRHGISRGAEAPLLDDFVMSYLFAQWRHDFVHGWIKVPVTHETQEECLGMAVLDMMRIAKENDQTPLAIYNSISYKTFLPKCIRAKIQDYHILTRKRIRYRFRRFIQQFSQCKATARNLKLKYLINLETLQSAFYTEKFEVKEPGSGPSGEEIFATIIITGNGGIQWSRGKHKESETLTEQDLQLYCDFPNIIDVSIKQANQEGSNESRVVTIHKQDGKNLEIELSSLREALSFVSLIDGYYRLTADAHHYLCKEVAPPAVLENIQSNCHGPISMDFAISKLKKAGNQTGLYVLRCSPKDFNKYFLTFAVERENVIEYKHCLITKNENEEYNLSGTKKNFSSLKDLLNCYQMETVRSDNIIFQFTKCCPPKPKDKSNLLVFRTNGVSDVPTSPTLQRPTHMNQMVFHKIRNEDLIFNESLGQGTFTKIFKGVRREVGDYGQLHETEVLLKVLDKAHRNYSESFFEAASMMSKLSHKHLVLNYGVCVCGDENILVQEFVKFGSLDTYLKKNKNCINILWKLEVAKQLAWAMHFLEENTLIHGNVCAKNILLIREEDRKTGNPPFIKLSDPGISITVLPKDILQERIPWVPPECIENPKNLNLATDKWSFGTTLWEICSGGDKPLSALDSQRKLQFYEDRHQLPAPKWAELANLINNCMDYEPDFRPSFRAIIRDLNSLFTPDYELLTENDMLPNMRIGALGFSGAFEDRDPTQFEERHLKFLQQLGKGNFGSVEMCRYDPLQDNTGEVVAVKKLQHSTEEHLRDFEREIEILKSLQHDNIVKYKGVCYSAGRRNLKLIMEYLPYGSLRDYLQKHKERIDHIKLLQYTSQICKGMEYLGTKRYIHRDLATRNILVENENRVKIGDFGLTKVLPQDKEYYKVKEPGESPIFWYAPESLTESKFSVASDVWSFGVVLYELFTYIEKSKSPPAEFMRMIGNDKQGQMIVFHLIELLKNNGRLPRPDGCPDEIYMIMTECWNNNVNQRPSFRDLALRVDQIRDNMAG
PLK1 (human), sequence (P53350 whole entry, looked up): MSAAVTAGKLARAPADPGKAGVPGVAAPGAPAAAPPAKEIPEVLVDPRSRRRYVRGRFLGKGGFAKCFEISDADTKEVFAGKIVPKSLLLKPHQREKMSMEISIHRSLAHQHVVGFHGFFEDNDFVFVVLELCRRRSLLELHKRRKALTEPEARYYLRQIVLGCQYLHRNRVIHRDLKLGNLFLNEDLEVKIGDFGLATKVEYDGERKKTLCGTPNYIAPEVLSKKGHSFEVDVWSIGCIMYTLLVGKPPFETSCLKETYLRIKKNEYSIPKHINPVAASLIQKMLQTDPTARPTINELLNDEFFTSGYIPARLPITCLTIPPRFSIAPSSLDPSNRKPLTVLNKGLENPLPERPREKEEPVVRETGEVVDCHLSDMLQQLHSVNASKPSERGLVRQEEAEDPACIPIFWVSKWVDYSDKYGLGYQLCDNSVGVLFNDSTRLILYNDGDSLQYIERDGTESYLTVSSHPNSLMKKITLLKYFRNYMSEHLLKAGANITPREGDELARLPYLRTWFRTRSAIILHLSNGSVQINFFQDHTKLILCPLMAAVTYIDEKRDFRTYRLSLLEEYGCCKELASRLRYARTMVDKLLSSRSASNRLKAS
CLK2 (human), sequence (P49760 whole entry, looked up): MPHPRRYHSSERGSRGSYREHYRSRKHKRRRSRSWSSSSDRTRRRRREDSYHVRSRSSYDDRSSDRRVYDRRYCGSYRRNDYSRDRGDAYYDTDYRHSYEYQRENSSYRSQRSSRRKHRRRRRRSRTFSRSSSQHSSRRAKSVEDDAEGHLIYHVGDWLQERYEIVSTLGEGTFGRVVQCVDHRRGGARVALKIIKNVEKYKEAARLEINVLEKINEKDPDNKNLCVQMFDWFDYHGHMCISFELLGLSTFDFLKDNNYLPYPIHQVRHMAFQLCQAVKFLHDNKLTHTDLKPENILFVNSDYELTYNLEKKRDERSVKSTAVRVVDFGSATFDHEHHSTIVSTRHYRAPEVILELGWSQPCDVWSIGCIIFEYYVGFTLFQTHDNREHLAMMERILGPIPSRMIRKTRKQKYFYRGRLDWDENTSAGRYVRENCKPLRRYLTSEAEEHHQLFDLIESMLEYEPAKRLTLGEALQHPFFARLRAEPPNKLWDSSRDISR
CSNK1D (human), sequence (P48730 whole entry, looked up): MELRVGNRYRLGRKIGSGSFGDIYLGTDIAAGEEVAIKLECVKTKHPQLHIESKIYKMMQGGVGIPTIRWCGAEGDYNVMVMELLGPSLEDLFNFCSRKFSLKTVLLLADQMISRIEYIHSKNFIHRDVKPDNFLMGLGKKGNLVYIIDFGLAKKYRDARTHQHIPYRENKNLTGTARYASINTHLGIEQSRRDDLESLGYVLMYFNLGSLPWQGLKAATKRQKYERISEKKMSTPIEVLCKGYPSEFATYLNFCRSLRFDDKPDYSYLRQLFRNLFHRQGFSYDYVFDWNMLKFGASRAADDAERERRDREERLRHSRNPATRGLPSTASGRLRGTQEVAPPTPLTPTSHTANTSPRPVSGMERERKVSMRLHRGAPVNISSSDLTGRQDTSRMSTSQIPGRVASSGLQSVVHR
EPHA4 (human), sequence (P54764 whole entry, looked up): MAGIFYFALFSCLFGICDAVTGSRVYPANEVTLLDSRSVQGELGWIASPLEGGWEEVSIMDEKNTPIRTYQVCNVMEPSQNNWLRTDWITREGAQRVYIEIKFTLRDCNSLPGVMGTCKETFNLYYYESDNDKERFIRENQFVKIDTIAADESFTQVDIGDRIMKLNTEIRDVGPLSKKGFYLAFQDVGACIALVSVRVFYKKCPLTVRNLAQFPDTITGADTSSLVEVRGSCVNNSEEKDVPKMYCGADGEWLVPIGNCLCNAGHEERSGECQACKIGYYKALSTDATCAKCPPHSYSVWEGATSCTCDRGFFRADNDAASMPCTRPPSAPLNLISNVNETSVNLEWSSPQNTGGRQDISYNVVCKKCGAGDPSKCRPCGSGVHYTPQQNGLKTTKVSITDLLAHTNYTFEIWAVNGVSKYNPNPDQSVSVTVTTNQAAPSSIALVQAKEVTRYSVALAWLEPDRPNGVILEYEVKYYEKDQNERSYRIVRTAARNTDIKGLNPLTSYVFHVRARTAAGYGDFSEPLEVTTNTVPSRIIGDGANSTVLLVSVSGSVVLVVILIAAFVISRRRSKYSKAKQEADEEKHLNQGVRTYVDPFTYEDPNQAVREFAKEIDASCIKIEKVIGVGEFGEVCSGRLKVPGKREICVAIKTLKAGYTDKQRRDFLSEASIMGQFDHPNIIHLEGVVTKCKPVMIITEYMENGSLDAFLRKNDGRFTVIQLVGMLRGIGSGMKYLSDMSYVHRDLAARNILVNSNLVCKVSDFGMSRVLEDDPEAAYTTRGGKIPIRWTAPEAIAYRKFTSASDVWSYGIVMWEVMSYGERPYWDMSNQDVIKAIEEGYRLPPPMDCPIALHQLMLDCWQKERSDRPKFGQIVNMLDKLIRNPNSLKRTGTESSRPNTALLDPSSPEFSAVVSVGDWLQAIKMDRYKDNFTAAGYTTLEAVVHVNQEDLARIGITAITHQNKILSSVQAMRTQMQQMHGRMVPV
MAP3K11 (human), sequence (Q16584 whole entry, looked up): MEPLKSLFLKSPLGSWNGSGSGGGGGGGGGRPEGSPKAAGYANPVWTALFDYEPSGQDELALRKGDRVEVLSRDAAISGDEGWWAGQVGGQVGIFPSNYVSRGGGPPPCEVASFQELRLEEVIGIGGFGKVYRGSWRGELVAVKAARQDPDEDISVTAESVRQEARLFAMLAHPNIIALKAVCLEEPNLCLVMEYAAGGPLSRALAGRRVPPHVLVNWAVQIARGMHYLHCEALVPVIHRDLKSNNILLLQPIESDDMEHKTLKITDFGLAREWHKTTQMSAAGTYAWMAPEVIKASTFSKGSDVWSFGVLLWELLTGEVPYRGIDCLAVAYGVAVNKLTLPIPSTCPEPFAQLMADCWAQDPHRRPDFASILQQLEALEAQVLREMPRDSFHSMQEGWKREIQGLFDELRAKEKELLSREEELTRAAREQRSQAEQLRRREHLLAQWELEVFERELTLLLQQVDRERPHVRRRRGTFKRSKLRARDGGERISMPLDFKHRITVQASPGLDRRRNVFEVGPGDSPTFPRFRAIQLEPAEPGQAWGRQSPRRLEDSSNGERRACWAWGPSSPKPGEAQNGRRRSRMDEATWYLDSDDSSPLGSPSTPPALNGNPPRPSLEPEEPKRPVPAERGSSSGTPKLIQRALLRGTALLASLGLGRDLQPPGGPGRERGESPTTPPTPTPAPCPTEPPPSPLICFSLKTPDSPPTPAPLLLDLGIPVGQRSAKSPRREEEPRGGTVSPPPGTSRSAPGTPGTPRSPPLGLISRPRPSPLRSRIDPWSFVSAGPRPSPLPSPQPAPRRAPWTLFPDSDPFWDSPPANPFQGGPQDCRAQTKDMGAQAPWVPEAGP

SMILES: CC1=C(CO)C(=O)O[C@@H]([C@@H](C)[C@H]2CC[C@H]3[C@@H]4C[C@H]5O[C@]56[C@@H](O)C=CC(=O)[C@]6(C)C4CC[C@]23C)C1 (some centres not stated)
- residual activity (INSR (human)): 117%
- residual activity (EPHB2 (human); compound 0.1 µM): 116%
- residual activity (EPHB2 (human); compound 1.0 µM): 102%
- residual activity (EPHB2 (human); compound 10.0 µM): 105%
- residual activity (MAPK12 (human); compound 0.1 µM): 114%
- residual activity (MAPK12 (human); compound 1.0 µM): 116%
- residual activity (MAPK12 (human); compound 10.0 µM): 103%
- residual activity ([1]; compound 0.1 µM): 100%
- residual activity ([1]; compound 1.0 µM): 96%
- residual activity ([1]; compound 10.0 µM): 86%
- residual activity (TBK1 (human); compound 1.0 µM): 107%
- residual activity (TBK1 (human); compound 10.0 µM): 93%
- residual activity (SYK (human); compound 1.0 µM): 115%
- residual activity (SYK (human); compound 10.0 µM): 130%
- residual activity (CDK2 CCNA2 (human); compound 0.1 µM): 108%
- residual activity (CDK2 CCNA2 (human); compound 1.0 µM): 113%
- residual activity (CDK2 CCNA2 (human); compound 10.0 µM): 117%
- residual activity (EPHA4 (human); compound 0.1 µM): 107%
- residual activity (EPHA4 (human); compound 1.0 µM): 98%
- residual activity (EPHA4 (human); compound 10.0 µM): 109%
- residual activity (FGFR1 (human); compound 0.1 µM): 98%
- residual activity (FGFR1 (human); compound 1.0 µM): 97%
- residual activity (FGFR1 (human); compound 10.0 µM): 94%
- residual activity (MAP3K7 TAB1 (human); compound 0.1 µM): 114%
- residual activity (MAP3K7 TAB1 (human); compound 1.0 µM): 104%
- residual activity (MAP3K7 TAB1 (human); compound 10.0 µM): 109%
- residual activity ([2]; compound 0.1 µM): 99%
- residual activity ([2]; compound 1.0 µM): 97%
- residual activity ([2]; compound 10.0 µM): 69%
- residual activity (CSNK1D (human); compound 0.1 µM): 92%
- residual activity (CSNK1D (human); compound 1.0 µM): 103%
- residual activity (CSNK1D (human); compound 10.0 µM): 105%
- residual activity (RIPK2 (human); compound 0.1 µM): 95%
- residual activity (RIPK2 (human); compound 1.0 µM): 108%
- residual activity (RIPK2 (human); compound 10.0 µM): 110%
- residual activity (BRSK2 (human); compound 0.1 µM): 99%
- residual activity (BRSK2 (human); compound 1.0 µM): 103%
- residual activity (BRSK2 (human); compound 10.0 µM): 77%
- residual activity (MAP3K11 (human); compound 0.1 µM): 110%
- residual activity (MAP3K11 (human); compound 1.0 µM): 110%
- residual activity (MAP3K11 (human); compound 10.0 µM): 97%
- residual activity (MELK (human); compound 0.1 µM): 98%
- residual activity (MELK (human); compound 1.0 µM): 107%
- residual activity (MELK (human); compound 10.0 µM): 123%
- residual activity (PIM3 (human); compound 0.1 µM): 95%
- residual activity (PIM3 (human); compound 1.0 µM): 110%
- residual activity (PIM3 (human); compound 10.0 µM): 83%
- residual activity (PIM1 (human); compound 0.1 µM): 109%
- residual activity (PIM1 (human); compound 1.0 µM): 103%
- residual activity (PIM1 (human); compound 10.0 µM): 94%
- residual activity ([3]; compound 0.1 µM): 110%
- residual activity ([3]; compound 10.0 µM): 103%
- residual activity (TTK (human); compound 0.1 µM): 111%
- residual activity (TTK (human); compound 1.0 µM): 112%
- residual activity (TTK (human); compound 10.0 µM): 94%
- residual activity (RPS6KA3 KD1 KD2 (human); compound 0.1 µM): 114%
- residual activity (RPS6KA3 KD1 KD2 (human); compound 1.0 µM): 98%
- residual activity (RPS6KA3 KD1 KD2 (human); compound 10.0 µM): 74%
- residual activity (MAPKAPK3 (human); compound 0.1 µM): 120%
- residual activity (MAPKAPK3 (human); compound 1.0 µM): 85%
- residual activity (MAPKAPK3 (human); compound 10.0 µM): 47%
- residual activity (BRSK1 (human); compound 0.1 µM): 106%
- residual activity (BRSK1 (human); compound 1.0 µM): 111%
- residual activity (BRSK1 (human); compound 10.0 µM): 91%
- residual activity (MAPK8 (human); compound 0.1 µM): 103%
- residual activity (MAPK8 (human); compound 1.0 µM): 102%
- residual activity (MAPK8 (human); compound 10.0 µM): 110%
- residual activity (MYLK (human); compound 0.1 µM): 113%
- residual activity (MYLK (human); compound 1.0 µM): 114%
- residual activity (MYLK (human); compound 10.0 µM): 114%
- residual activity (CLK2 (human); compound 0.1 µM): 88%
- residual activity (CLK2 (human); compound 1.0 µM): 102%
- residual activity (CLK2 (human); compound 10.0 µM): 94%
- residual activity (AURKA (human); compound 0.1 µM): 108%
- residual activity (AURKA (human); compound 1.0 µM): 102%
- residual activity (AURKA (human); compound 10.0 µM): 30%
- residual activity (PLK1 (human); compound 0.1 µM): 105%
- residual activity (PLK1 (human); compound 1.0 µM): 101%
- residual activity (PLK1 (human); compound 10.0 µM): 118%
- residual activity (JAK2 JH1 JH2 (human); compound 0.1 µM): 98%
- residual activity (JAK2 JH1 JH2 (human); compound 1.0 µM): 98%
- residual activity (JAK2 JH1 JH2 (human); compound 10.0 µM): 103%
- residual activity (CSK (human); compound 0.1 µM): 112%
- residual activity (CSK (human); compound 1.0 µM): 109%
- residual activity (CSK (human); compound 10.0 µM): 111%
- residual activity (INSRR (human); compound 0.1 µM): 99%
- residual activity (INSRR (human); compound 1.0 µM): 97%
- residual activity (INSRR (human); compound 10.0 µM): 77%
- residual activity (MARK4 (human); compound 0.1 µM): 87%
- residual activity (MARK4 (human); compound 1.0 µM): 97%
- residual activity (MARK4 (human); compound 10.0 µM): 77%
- residual activity (IRAK4 (human); compound 1.0 µM): 101%
- residual activity (IRAK4 (human); compound 10.0 µM): 79%
- residual activity (FLT1 (human); compound 0.1 µM): 120%
- residual activity (FLT1 (human); compound 10.0 µM): 30%
- residual activity (MAP2K2 (human); compound 0.1 µM): 108%
- residual activity (MAP2K2 (human); compound 10.0 µM): 120%
